Measured values taken from ChEMBL document CHEMBL3244037, “6-Aryl-4H-s-triazolo[4,3-a][1,4]benzodiazepines. Influence of 1-substitution on pharmacological activity” (J Med Chem, 1979).

How the values were obtained:
[1] = test system: Mus musculus; test: Potentiation of yohimbine toxicity in ip dosed aggregated albino CF1 mouse; format: organism-based
[2] = test system: Mus musculus; test: Hypothermic activity in ip dosed albino CF1 mouse assessed as effect on body temperature measured after 45 mins; format: functional; conditions: 0.75 h
[3] = test system: Mus musculus; test: Inhibition of oxotremorine-induced hypothermia in ip dosed albino CF1 mouse; format: functional
[4] = test system: Mus musculus; test: Reduction of hypoxic stress in ip dosed albino CF1 mouse assessed as prolongation of hypoxic survival time; format: functional
[5] = test system: Mus musculus; test: […] activity in ip dosed albino CF1 mouse assessed as potentiation of gamma-butyrolactone-induced sleep; format: functional
[6] = test system: Mus musculus; test: Anticonvulsant activity in ip dosed albino CF1 mouse assessed as protection against pentylenetetrazole-induced clonic convulsions; format: functional
[7] = test system: Mus musculus; test: Inhibition of apomorphine-induced cage climbing in ip dosed albino CF1 mouse compound administered prior to challenge measured for 5 mins after 5 mins of challenge; format: functional
[8] = test system: Mus musculus; test: Potentiation of apomorphine-induced gnawing in ip dosed albino CF1 mouse; format: organism-based
[9] = test system: Mus musculus; test: Anticonvulsant activity in ip dosed albino CF1 mouse assessed as inhibition of bicucullin-induced tonic extensor convulsions; format: functional
[10] = test system: Mus musculus; test: Inhibition of amphetamine aggregation toxicity in ip dosed albino CF1 mouse compound administered 1 hr prior to challenge measured after 2 hrs; format: functional

Structure (SMILES)	ED50 [1]	ED50 [2]	ED50 [3]	ED50 [4]	ED50 [5]	ED50 [6]	ED50 [7]	ED50 [8]	ED50 [9]	ED50 [10]
Clc1ccc2c(c1)C(c1ccccc1)=NCc1nnc(Br)n1-2	> 50 mg/kg	> 50 mg/kg	> 50 mg/kg	6 mg/kg	2 mg/kg	2.3 mg/kg	> 50 mg/kg	> 50 mg/kg	3 mg/kg	> 50 mg/kg
Clc1ccc2c(c1)C(c1ccccc1)=NCc1nnc(N3CCOCC3)n1-2	> 50 mg/kg	7 mg/kg	35.4 mg/kg	> 50 mg/kg	4.4 mg/kg	2.6 mg/kg	40 mg/kg	35.4 mg/kg	3.1 mg/kg	> 50 mg/kg
CN(C)c1nnc2n1-c1ccc(Cl)cc1C(c1ccccc1)=NC2	> 50 mg/kg	> 50 mg/kg	21 mg/kg	9 mg/kg	0.3 mg/kg	0.9 mg/kg	> 50 mg/kg	> 50 mg/kg	1.1 mg/kg	> 50 mg/kg
COc1nnc2n1-c1ccc(Cl)cc1C(c1ccccc1)=NC2	> 50 mg/kg	10 mg/kg	> 50 mg/kg	> 50 mg/kg	0.1 mg/kg	0.14 mg/kg	> 50 mg/kg	> 50 mg/kg	0.5 mg/kg	> 50 mg/kg
Sc1nnc2n1-c1ccc(Cl)cc1C(c1ccccc1)=NC2	> 50 mg/kg	9 mg/kg	> 50 mg/kg	9 mg/kg	0.8 mg/kg	2.3 mg/kg	> 50 mg/kg	> 50 mg/kg	3 mg/kg	> 50 mg/kg
COCc1nnc2n1-c1ccc(Cl)cc1C(c1ccccc1)=NC2	> 50 mg/kg	30 mg/kg	> 50 mg/kg	20 mg/kg	2 mg/kg	2 mg/kg	> 50 mg/kg	> 50 mg/kg	0.6 mg/kg	> 50 mg/kg
OCc1nnc2n1-c1ccc(Cl)cc1C(c1ccccc1)=NC2	> 50 mg/kg	> 50 mg/kg	20 mg/kg	0.9 mg/kg	0.1 mg/kg	0.1 mg/kg	> 50 mg/kg	> 50 mg/kg	0.2 mg/kg	> 50 mg/kg
N#CCc1nnc2n1-c1ccc(Cl)cc1C(c1ccccc1)=NC2	> 50 mg/kg	> 50 mg/kg	> 50 mg/kg	2 mg/kg	0.07 mg/kg	0.63 mg/kg	40 mg/kg	> 50 mg/kg	0.2 mg/kg	> 50 mg/kg
CC1N=C(c2ccccc2)c2cc(Cl)ccc2-n2c1nnc2N1CCN(C)CC1 (stereo not given)	8.8 mg/kg	29.7 mg/kg	4.4 mg/kg	4.4 mg/kg	0.7 mg/kg	3.1 mg/kg	50 mg/kg	> 50 mg/kg	2.6 mg/kg	> 50 mg/kg
CC1N=C(c2ccccc2)c2cc(Cl)ccc2-n2c1nnc2N1CCOCC1 (stereo not given)	20 mg/kg	> 50 mg/kg	10 mg/kg	3 mg/kg	0.7 mg/kg	0.4 mg/kg	> 50 mg/kg	> 50 mg/kg	3 mg/kg	> 50 mg/kg
Cc1nnc2n1-c1ccc(N)cc1C(c1ccccc1Cl)=NC2	> 50 mg/kg	30 mg/kg	> 50 mg/kg	4 mg/kg	0.7 mg/kg	2 mg/kg	> 50 mg/kg	> 50 mg/kg	0.9 mg/kg	> 50 mg/kg
Brc1ccc2c(c1)C(c1ccccn1)=NCc1nncn1-2	42 mg/kg	> 50 mg/kg	> 50 mg/kg	0.2 mg/kg	0.04 mg/kg	0.3 mg/kg	> 50 mg/kg	> 50 mg/kg	0.4 mg/kg	> 50 mg/kg
Clc1ccc2c(c1)C(c1ccccc1)=NCc1nnc(Cl)n1-2	> 50 mg/kg	> 50 mg/kg	> 50 mg/kg	> 50 mg/kg	3 mg/kg	3.1 mg/kg	> 50 mg/kg	> 50 mg/kg	4 mg/kg	> 50 mg/kg
CN1CCN(c2nnc3n2-c2ccc(Cl)cc2C(c2ccccc2)=NC3)CC1	> 50 mg/kg	> 50 mg/kg	7.4 mg/kg	> 50 mg/kg	0.7 mg/kg	1.6 mg/kg	> 50 mg/kg	17.7 mg/kg	10.5 mg/kg	> 50 mg/kg
CCN1CCN(c2nnc3n2-c2ccc(Cl)cc2C(c2ccccc2)=NC3)CC1	> 50 mg/kg	42 mg/kg	0.2 mg/kg	25 mg/kg	0.6 mg/kg	0.9 mg/kg	> 50 mg/kg	29.7 mg/kg	1.9 mg/kg	> 50 mg/kg
OCCN1CCN(c2nnc3n2-c2ccccc2C(c2ccccc2Cl)=NC3)CC1	30 mg/kg	2 mg/kg	40 mg/kg	0.9 mg/kg	3 mg/kg	3 mg/kg	> 50 mg/kg	> 50 mg/kg	6 mg/kg	> 50 mg/kg
CCN1CCN(c2nnc3n2-c2ccccc2C(c2ccccc2Cl)=NC3)CC1	30 mg/kg	2 mg/kg	40 mg/kg	4 mg/kg	> 50 mg/kg	2 mg/kg	> 50 mg/kg	> 50 mg/kg	7 mg/kg	> 50 mg/kg
Clc1ccccc1C1=NCc2nnc(N3CCOCC3)n2-c2ccccc21	> 50 mg/kg	> 50 mg/kg	> 50 mg/kg	0.015 mg/kg	0.8 mg/kg	1.6 mg/kg	> 50 mg/kg	> 50 mg/kg	10.5 mg/kg	> 50 mg/kg
CN(C)CCOc1nnc2n1-c1ccc(Cl)cc1C(c1ccccc1)=NC2	> 50 mg/kg	> 50 mg/kg	25 mg/kg	0.8 mg/kg	0.2 mg/kg	2.2 mg/kg	> 50 mg/kg	> 50 mg/kg	1.1 mg/kg	> 50 mg/kg
CN(C)CCSc1nnc2n1-c1ccc(Cl)cc1C(c1ccccc1)=NC2	> 50 mg/kg	> 50 mg/kg	> 50 mg/kg	> 50 mg/kg	1.6 mg/kg	3.1 mg/kg	> 50 mg/kg	> 50 mg/kg	7.4 mg/kg	> 50 mg/kg
CCOCc1nnc2n1-c1ccc(Cl)cc1C(c1ccccc1)=NC2	> 50 mg/kg	40 mg/kg	> 50 mg/kg	10 mg/kg	0.9 mg/kg	1.4 mg/kg	> 50 mg/kg	> 50 mg/kg	3 mg/kg	> 50 mg/kg
Cc1nnc2n1-c1ccc(Br)cc1C(c1ccccc1)=NC2	> 50 mg/kg	20 mg/kg	> 50 mg/kg	2 mg/kg	0.8 mg/kg	0.6 mg/kg	20 mg/kg	> 50 mg/kg	0.5 mg/kg	> 50 mg/kg
